Literature values in patent publication US9211341B2, “Method of manufacturing a pharmaceutical composition having chelating type complex micelles” (Original BioMedicals Co., Ltd, priority 2011, dated 2015).

blood half-life (βt1/2) (after injection): 8.8 min
time to reach steady state after distribution to tissues and dephosphorylation (after injection): about 10 minutes
concentration in normal cells (kidney, lung, liver, skin, bone marrow, intestine, spleen) relative to cancer cells (following injection): 10 times
plasma clearance, fraction cleared (within 6 minutes): approximately 90%
Structure (SMILES): NCCCNCCSP(=O)(O)O [amifostine]
time at which the cytoprotective effect appears (after injection): 5 to 10 min
